Test results taken from patent publication US20250073255A1, “USE OF FA-TYPE LIPID COMPOUNDS IN PREPARATION OF NUCLEIC ACID DELIVERY REAGENT AND RELATED PRODUCT” (BEIJING BAISHIKANG PHARMACEUTICAL TECHNOLOGY (BSJPHARMA) …, priority 2021, published 2025).

Test system: C57BL/6 male mice
Test: In vivo delivery study of lipid nucleic acid mixture (oral gavage, RT-qPCR of PGY-sRNA-26 in tissues)
Parameters: species or system mouse
Settings: for oral delivery of single-stranded sRNA nucleic acids into mouse blood / oral delivery of single-stranded sRNA nucleic acids into mouse brain tissue / oral delivery of single-stranded sRNA nucleic acids into mouse femur / oral delivery of single-stranded sRNA nucleic acids into mouse heart tissue / oral delivery of single-stranded sRNA nucleic acids into mouse intestinal tissue / oral delivery of single-stranded sRNA nucleic acids into mouse kidney tissue / oral delivery of single-stranded sRNA nucleic acids into mouse liver tissue / oral delivery of single-stranded sRNA nucleic acids into mouse lung tissue / oral delivery of single-stranded sRNA nucleic acids into mouse spleen tissue / oral delivery of single-stranded sRNA nucleic acids into mouse stomach tissue: 100 μg lipid:10 nmol PGY-sRNA-26, sampled after 12 hours; for oral delivery of single-stranded sRNA nucleic acids into mouse heart tissue: vs free uptake group; for oral delivery of single-stranded sRNA nucleic acids into mouse intestinal tissue: intestine
Procedure: 10 nmol of small RNA (as shown in Table 2) was dissolved in 400 μl of DEPC-treated water in a glass tube, 10 μl of the corresponding lipid stock solution was added such that the lipid mass in the system was 100 μg. The mixture was mixed thoroughly, heated in a 90° C. water bath for 15 minutes, and then cooled naturally to obtain the lipid nucleic acid mixture of lipid and small RNA.
C57BL/6 male mice, approximately 6 weeks old, weighing […], were obtained from Beijing Vital River Laboratory Animal Technology Co., Ltd. The mice were housed in the SPF-grade animal facility at the Animal Center of the Institute of Basic Medical Sciences, Chinese Academy of Medical Sciences. The mice were fasted for 12 hours before gavage administration.
The lipid nucleic acid mixture was prepared following the method described in Example 2. The resultant lipid nucleic acid mixture was orally administered to each mouse at a dose of 100 μg lipid:10 nmol single-stranded 3-methylated small RNA PGY-sRNA-26.
• 1) Blank group (n=4): mice were administered with 500 μl saline by gavage, this group served as a blank control; • 2) Free uptake group (n=4): mice were directly administered with small RNA PGY-sRNA-26 solution (10 nmol/mouse, 500 l) by gavage, this group served as a negative control; • 3) Lipid-treated group (n=4): mice were administered with 500 μl lipid nucleic acid mixture prepared in step 2 by gavage.
After 12 hours of gavage administration, 500 μl blood from the eyeball of each mouse was sampled, added to 1.5 ml Trizol Reagent LS (purchased from Invitrogen), thoroughly mixed for lysis. 3 ml of Trizol Reagent LSwas added to tissue samples and homogenized for complete lysis, wherein the sampled tissues include heart, liver, spleen, lung, kidney, stomach, intestine, brain, blood, femur, pancreas. RNAwas extracted from 1 ml of the blood or the tissue lysate following the steps below: • Centrifuge at 4° C., 12,000 rpm for 5 min, discard the precipitate, transfer Trizol to a new centrifuge tube; • Add chloroform at 200 μL chloroform/mL Trizol, shake well, stand at room temperature for 5 min; • Centrifuge at 4° C., 12,000 rpm for 15 min; • Take the upper aqueous phase to another centrifuge tube, add isopropanol at 0.4 mL isopropanol/mL Trizol, mix well, and stand at low temperature for 10-20 min; • Centrifuge at 4° C., 12,000 rpm for 15 min, discard the supernatant, RNA precipitated at the bottom of the tube; • Add 1 mL of 75% ethanol, gently shake the centrifuge tube, suspend the precipitate; • Centrifuge at 4° C., 12,000 rpm for 15 min, discard the supernatant, add 1 mL of 75% ethanol, gently shake the centrifuge tube, suspend the precipitate; • Centrifuge at 4° C., 12,000 rpm for 15 min, discard the supernatant, air-dry at room temperature, dissolve RNA samples in 50 μL RNase-free H2O, measure OD value to quantify RNA concentration. 3.3 Reverse Transcription of sRNA to cDNA:
sRNA was reverse transcribed to cDNA using the High-Capacity cDNA Reverse Transcription Kit (Applied Biosystems, cat. no. 4368813) by stem-loop method (see, e.g., “Real-time quantification of microRNAs by stem-loop RT-PCR, Nucleic Acids Res. 2005 Nov. 27; 33(20):e179”, incorporated herein by reference). The reverse transcription system is as follows: Template RNA (200 ng/μL) 10 μL, 10×RT Buffer 2.0 μL, 25×dNTP Mix (100 mM) 0.8 μL, U6 RT stem-loop primer (10 μM) 2.0 μL, PGY-sRNA-26 RT stem-loop primer (10 μM) 2.0 μL, MultiScribe™ Reverse Transcriptase (50 U/μL) 1.0 μL, RNAse Inhibitor (40 U/μL) 1.0 μL, nuclease-free H2O 1.2 μL. After transient centrifugation, the reverse transcription system was placed in a PCR machine with the following reaction conditions: (1) 25° C., 10 min; (2) 37° C., 120 min; (3) 85° C., 5 min; (4) 4° C., stop reaction. After the reaction, add 20 μL RNAse-free ddH2O, adjust the final volume to 40 μL. […]

Compound | overall delivery efficacy: delivering nucleic acids into each tissue and blood tested (100 μg lipid:10 nmol PGY-sRNA-26, all tissues and blood tested) | oral delivery of single-stranded sRNA nucleic acids into mouse blood | oral delivery of single-stranded sRNA nucleic acids into mouse brain tissue | oral delivery of single-stranded sRNA nucleic acids into mouse femur | oral delivery of single-stranded sRNA nucleic acids into mouse heart tissue | oral delivery of single-stranded sRNA nucleic acids into mouse intestinal tissue | oral delivery of single-stranded sRNA nucleic acids into mouse kidney tissue | oral delivery of single-stranded sRNA nucleic acids into mouse liver tissue | oral delivery of single-stranded sRNA nucleic acids into mouse lung tissue | oral delivery of single-stranded sRNA nucleic acids into mouse spleen tissue | oral delivery of single-stranded sRNA nucleic acids into mouse stomach tissue
CC1(O)CCOC(=O)C1 (centres unmarked) [Lipid 603, 4-hydroxy-4-meth-yl-oxan-2-one] | best delivery efficacy | can effectively orally deliver | can effectively orally deliver | can effectively orally deliver | can effectively orally deliver | can effectively orally deliver | can effectively orally deliver | can effectively orally deliver | can effectively orally deliver | can effectively orally deliver | can effectively orally deliver
CCCCCC(=O)/C=C/C=O [Lipid 525, (E)-4-oxonon-2-enal] | – | – | – | – | – | can effectively orally deliver | can effectively orally deliver | – | can effectively orally deliver | can effectively orally deliver | can effectively orally deliver
CC(=O)C1CCOC1=O (centres unmarked) [Lipid 612, 3-acetyloxolan-2-one] | – | – | – | can effectively orally deliver | – | can effectively orally deliver | – | can effectively orally deliver | – | – | can effectively orally deliver
CCCCC/C=C\C/C=C\C/C=C\C/C=C\CCCC(=O)O [Lipid 620, (5Z,8Z,11Z,14Z)-icosa-5,8,11,14-tetraenoic acid] | – | – | can effectively orally deliver | can effectively orally deliver | can effectively orally deliver | can effectively orally deliver | can effectively orally deliver | can effectively orally deliver | can effectively orally deliver | can effectively orally deliver | can effectively orally deliver
CCCCCCCCCOC(C)=O [Lipid 617, nonyl acetate] | – | can effectively orally deliver | can effectively orally deliver | can effectively orally deliver | – | can effectively orally deliver | can effectively orally deliver | can effectively orally deliver | can effectively orally deliver | can effectively orally deliver | can effectively orally deliver
